US12280148B2, “Composition for promoting extracellular vesicle production containing peptide derived from noxa protein and method for producing extracellular vesicles by using same” (Exocalibre Therapeutics Co., Ltd., priority 2020, dated 2025)

Tests used:
Assay type in all cases: cell-based, human
[1] = system: 293-HEK cell line; experiment: Extracellular vesicle output quantified by Bradford solution
Method: The 293-HEK cell line was cultured in a 6-well plate at a rate of 2×10^5 cells/mL, and the next day, the cell line was treated with the solution of Example 1 and a peptide of any one of SEQ ID NOs: 1 to 21. […], the solution was removed, followed by centrifugation at an RCF of 12000, and the extracellular vesicles were quantified using the supernatant by Bradford solution.

[2] = system: 293-HEK cell line; experiment: Extracellular vesicle size and quantity by Nanoparticle Tracking Analysis (NTA); settings: 50-fold diluted, solution of Example 1, peptide 20 μm, after 20 minutes
Method: After the 293-HEK cell line was cultured to 90% confluency (about 2×10^7 cells) in a 10-cm culture dish, the culture was removed, and the cells were treated with the eMTDΔ4 peptide (final concentration: 20 μm), which has been dissolved in 5 ml of the solution of Example 1. After 20 minutes, the solution was removed, followed by centrifugation at an RCF of 12000, and then the size and quantity of extracellular vesicles were measured using a Nanoparticle Tracking Analysis (NTA) system (Nanosight LM10, Malvern Instruments).

[3] = system: HeLa cell line; experiment: Production of extracellular vesicles, observed by optical microscope (bright field)
Method: After the HeLa cell line was cultured in a 6-well plate, the culture was removed, and then the HeLa cell line was treated with the solution in Example 1.
The control group was not treated with any peptide, and the experiment group was treated with eMTDΔ4 peptide of SEQ ID NO: 2 (final concentration: 20 μM). After 10 minutes, the generation of extracellular vesicles was observed by an optical microscope (bright field), and the observation results are shown in FIG. 1.
Extracellular vesicle production was carried out by the experimental method of Experimental Example 2-1 using the R(8):MTD peptide of SEQ ID NO: 4 and the solutions of Example 1 and Comparative Examples 1 to 18, and the results are shown in FIGS. 2A to 2S.
Extracellular vesicle production was carried out by the experimental method of Example 2-1 using the R(8):MTD peptide of SEQ ID NO: 4 and the solutions of Examples 1 to 3 on Table 3, and the results are shown in FIGS. 3A to 3C.

[4] = solution of Example 1, peptide 10 μM
[5] = solution of Example 1, peptide 20 μM
[6] = solution of Example 1, peptide 40 μM

Row | Sequence | Amount of proteins contained in extracellular vesicles [1, 4] [µg/µL] | Amount of proteins contained in extracellular vesicles [1, 5] [µg/µL] | Amount of proteins contained in extracellular vesicles [1, 6] [µg/µL] | Quantity of extracellular vesicles [2] [mL⁻¹] | generation of extracellular vesicles ([3]; solution of Example 1 (250 mM sucrose), peptide final concentration 20 μM, after 10 minutes) | generation of extracellular vesicles ([3]; solutions of Comparative Examples 1 to 18 (FIGS. 2B to 2S)) | generation of extracellular vesicles ([3]; solutions of Examples 1 to 3, excess of glucose or sorbitol instead of sucrose)
1 | AEYRKLLNLISKLF (TU128) [Noxa protein-derived derivative peptide, 14aa] | 3.86 | 5.29 | 7.25 | – | – | – | –
2 | AEYSRKLLNLISKLF (TU135) [Noxa protein-derived derivative peptide, 15aa] | 1.81 | 4.41 | 6.54 | – | – | – | –
3 | AFFLRKLLNLISKLF (TU151) [Noxa protein-derived derivative peptide, 15aa] | 1.51 | 1.30 | 1.40 | – | – | – | –
4 | AHFLRKLLNLISKLF (TU149) [Noxa protein-derived derivative peptide, 15aa] | 1.71 | 2.00 | 2.57 | – | – | – | –
5 | GLKSLRKLLNLISKLF (TU111) [Noxa protein-derived derivative peptide, 16aa] | 4.17 | 4.98 | 6.44 | – | – | – | –
6 | KLLNLISKLF [MTD] | 0.80 | 1.17 | 2.87 | 8.01e+08 ± 1.75e+07 | – | – | –
7 | KLLNLWSLLFGYTIK (TU103) [Noxa protein-derived derivative peptide, 15aa] | 0.75 | 0.40 | 0.55 | – | – | – | –
8 | KLLNLWSLLKGYTIK (TU124) [Noxa protein-derived derivative peptide, 15aa] | 3.30 | 5.02 | 6.24 | – | – | – | –
9 | KLNFAEFLRNLISKLF (TU166) [Noxa protein-derived derivative peptide, 16aa] | 5.77 | 6.68 | 8.10 | – | – | – | –
10 | KLNFRLGLRSLREKLF (TU168) [Noxa protein-derived derivative peptide, 16aa] | 0.77 | 2.17 | 3.74 | – | – | – | –
11 | KLNFRQKLARLLTKLF (TU171) [Noxa protein-derived derivative peptide, 16aa] | 2.64 | 3.62 | 5.30 | – | – | – | –
12 | KVSIFLKNLISKLF (TU156) [Noxa protein-derived derivative peptide, 14aa] | 1.17 | 1.55 | 3.93 | – | – | – | –
13 | KWYAKLLNLISKLF (TU114) [Noxa protein-derived derivative peptide, 14aa] | – | – | – | 8.75e+08 ± 9.27e+07 | – | – | –
14 | LNFKWYSLLNLISKLF (TU172) [Noxa protein-derived derivative peptide, 16aa] | 0.83 | 0.44 | 0.59 | – | – | – | –
15 | LRSLRDKLLNLISKLF (TU107) [Noxa protein-derived derivative peptide, 16aa] | 5.58 | 6.69 | 7.45 | – | – | – | –
16 | MEWWYLLKLLNLISKLF (TU104) [Noxa protein-derived derivative peptide, 17aa] | 0.62 | 0.75 | 1.02 | – | – | – | –
17 | QFAQYLRNLISKLF (TU155) [Noxa protein-derived derivative peptide, 14aa] | 1.56 | 1.77 | 2.85 | – | – | – | –
18 | RPARPARGGKLLNLISKLF (TU17) [Noxa protein-derived derivative peptide, 19aa] | – | – | – | 7.95e+08 ± 7.15e+07 | – | – | –
19 | RRRRRRRRKLLNLISKLF [R(8):MTD] | – | – | – | – | many extracellular vesicle particles were generated | extracellular vesicle particles were not generated | extracellular vesicles were well formed
20 | YWLPLRKLLNLISKLF (TU146) [Noxa protein-derived derivative peptide, 16aa] | 2.01 | 2.89 | 3.50 | – | – | – | –
